# US12570662B2, “Substituted pyrrolo[1,2-b]pyridazines as bifunctional degraders of interleukin-1 receptor-associated kinases” (Nurix Therapeutics, Inc., priority 2021, dated 2026)
# Molecular target: T1, IRAK4 (Homo sapiens, UniProt Q9NWZ3)
# T1 construct: C-terminal HiBiT-tagged Jurkat cells (polyclonal cell line or clone 8D5); endogenous in cells; host or cells: Jurkat cells (polyclonal cell line or clone 8D5), HiBiT-tagged
# T1 sequence (Q9NWZ3 1-460): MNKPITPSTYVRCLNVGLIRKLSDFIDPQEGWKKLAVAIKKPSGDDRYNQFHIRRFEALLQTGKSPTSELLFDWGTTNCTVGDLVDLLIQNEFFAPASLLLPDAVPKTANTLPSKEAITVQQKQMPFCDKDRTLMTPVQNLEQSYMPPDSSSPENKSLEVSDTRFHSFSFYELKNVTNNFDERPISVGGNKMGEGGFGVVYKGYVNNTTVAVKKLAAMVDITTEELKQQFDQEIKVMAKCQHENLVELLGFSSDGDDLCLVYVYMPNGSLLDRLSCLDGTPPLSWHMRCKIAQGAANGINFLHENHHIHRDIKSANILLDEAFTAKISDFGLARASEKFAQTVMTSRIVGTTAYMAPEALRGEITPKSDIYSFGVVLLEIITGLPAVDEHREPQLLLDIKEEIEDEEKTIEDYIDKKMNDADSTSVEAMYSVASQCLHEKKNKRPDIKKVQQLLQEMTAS
# Assay: IRAK4 Degradation HiBit Assay
# Type: cell-based
# Conditions: C-terminal HiBiT-tagged Jurkat cells, 4 hrs incubation; for DC50: % IRAK4 remaining, four-parameter fit (IC50 used as DC50); for Dmax: from fit of % IRAK4 remaining, read-out: Dmax
# Outline: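 Degradation was quantified by luminescence after adding lytic detection reagent containing LgBiT to HiBiT-tagged Jurkat cells (polyclonal or clone 8D5). Cells were treated 4 h at 32 °C across 11 concentrations from 10 μM to 0.1 nM final. Four-parameter curve fitting of % IRAK4 remaining versus DMSO gave DC50 and Dmax.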
Compound,DC50 [nM],Dmax [%]
"N#CCNc1cc(-c2ccc3cc(C#N)cnn23)ncc1-c1nnc(N2CC3CCC(C2)N3CC2CCN(c3ccc([C@H]4CCC(=O)NC4=O)cc3)CC2)s1 (racemic) [Example 105, rac-7-{4-[(cyanomethyl)amino]-5-(5-{8-[(1-{4-[(3R)-2,6-dioxopiperidin-3-yl]phenyl}piperidin-4-yl)methyl]-3,8-diazabicyclo[3.2.1]octan-3-yl}-1,3,4-thiadiazol-2-yl)pyridin-2-yl}pyrrolo[1,2-b]pyridazine-3-carbonitrile]",6,112
"N#Cc1cnn2c(-c3cc(NC4CCOCC4)c(-c4nnc(N5CCN(CC6CCN(c7ccc(C8CCC(=O)NC8=O)nc7)CC6)CC5)s4)cn3)ccc2c1 (racemic) [Example 106, rac-7-[5-(5-{4-[(1-{6-[(3R)-2,6-dioxopiperidin-3-yl]pyridin-3-yl}piperidin-4-yl)methyl]piperazin-1-yl}-1,3,4-thiadiazol-2-yl)-4-[(oxan-4-yl)amino]pyridin-2-yl]pyrrolo[1,2-b]pyridazine-3-carbonitrile]",21,99
"N#Cc1cnn2c(-c3cc(NC4CCOCC4)c(-c4nnc(N5CCN(C[C@H]6CC[C@H](Oc7ccc([C@@H]8CCC(=O)NC8=O)cn7)CC6)CC5)s4)cn3)ccc2c1 (racemic) [Example 107, 7-{4-[(oxan-4-yl)amino]-5-[5-(4-{[(1r,4r)-4-({5-[(3RS)-2,6-dioxopiperidin-3-yl]pyridin-2-yl}oxy)cyclohexyl]methyl}piperazin-1-yl)-1,3,4-thiadiazol-2-yl]pyridin-2-yl}pyrrolo[1,2-b]pyridazine-3-carbonitrile]",65,111
"N#Cc1cnn2c(-c3cc(NC4CCOCC4)c(-c4nnc(N5CC6CCC(C5)N6C[C@H]5CC[C@H](Oc6ccc([C@@H]7CCC(=O)NC7=O)cn6)CC5)s4)cn3)ccc2c1 (racemic) [Example 108, 7-{4-[(oxan-4-yl)amino]-5-[5-(8-{[(1r,4r)-4-({5-[(3RS)-2,6-dioxopiperidin-3-yl]pyridin-2-yl}oxy)cyclohexyl]methyl}-3,8-diazabicyclo[3.2.1]octan-3-yl)-1,3,4-thiadiazol-2-yl]pyridin-2-yl}pyrrolo[1,2-b]pyridazine-3-carbonitrile]",40,87
"N#Cc1cnn2c(-c3cc(NC4CCC4)c(-c4nnc(N5CCN(CC6CCN(c7ccc(C8CCC(=O)NC8=O)cn7)CC6)CC5)s4)cn3)ccc2c1 (racemic) [Example 113, rac-7-[4-(cyclobutylamino)-5-(5-{4-[(1-{5-[(3R)-2,6-dioxopiperidin-3-yl]pyridin-2-yl}piperidin-4-yl)methyl]piperazin-1-yl}-1,3,4-thiadiazol-2-yl)pyridin-2-yl]pyrrolo[1,2-b]pyridazine-3-carbonitrile]",239,105
"COC[C@@H](C)Nc1cc(-c2ccc3cc(C#N)cnn23)ncc1-c1nnc(N2CC3CCC(C2)N3CC2CCN(c3ccc(C4CCC(=O)NC4=O)cn3)CC2)s1 (mixture of isomers) [Example 114, 7-[5-(5-{8-[(1-{5-[(3RS)-2,6-dioxopiperidin-3-yl]pyridin-2-yl}piperidin-4-yl)methyl]-3,8-diazabicyclo[3.2.1]octan-3-yl}-1,3,4-thiadiazol-2-yl)-4-{[(2R)-1-methoxypropan-2-yl]amino}pyridin-2-yl]pyrrolo[1,2-b]pyridazine-3-carbonitrile]",100,110
"N#Cc1cnn2c(-c3cc(NC4CCOCC4)c(-c4nnc(N5CCN(CC6CCN(c7ccc([C@H]8CCC(=O)NC8=O)cn7)CC6)CC5)s4)cn3)ccc2c1 (single isomer, unassigned) [Example 30]",40,104
"N#Cc1cnn2c(-c3cc(NC4CCOCC4)c(-c4nnc(N5CCN(CC6CCN(c7ccc([C@@H]8CCC(=O)NC8=O)cn7)CC6)CC5)s4)cn3)ccc2c1 (single isomer, unassigned) [Example 31]",160,53
"CNc1cc(-c2ccc3cc(C#N)cnn23)ncc1-c1nnc(N2CCN(CC3CCN(c4ccc([C@H]5CCC(=O)NC5=O)cn4)CC3)CC2)s1 (single isomer, unassigned) [Example 41]",1050,83
"CNc1cc(-c2ccc3cc(C#N)cnn23)ncc1-c1nnc(N2CCN(CC3CCN(c4ccc([C@@H]5CCC(=O)NC5=O)cn4)CC3)CC2)s1 (single isomer, unassigned) [Example 42]",16,115
"N#Cc1cnn2c(-c3cc(NC4CCOCC4)c(-c4nnc(N5CC6CCC(C5)N6CC5CCN(c6ccc([C@@H]7CCC(=O)NC7=O)cc6)CC5)s4)cn3)ccc2c1 (single isomer, unassigned) [Example 109]",52,94
"N#Cc1cnn2c(-c3cc(NC4CCOCC4)c(-c4nnc(N5CC6CCC(C5)N6CC5CCN(c6ccc([C@H]7CCC(=O)NC7=O)cc6)CC5)s4)cn3)ccc2c1 (single isomer, unassigned) [Example 110]",50,50
"N#Cc1cnn2c(-c3cc(NC4CCOCC4)c(-c4nnc(N5CC6CCC(C5)N6CC5CCN(c6ccc([C@@H]7CCC(=O)NC7=O)cn6)CC5)s4)cn3)ccc2c1 (single isomer, unassigned) [Example 111]",32,110
"N#Cc1cnn2c(-c3cc(NC4CCOCC4)c(-c4nnc(N5CC6CCC(C5)N6CC5CCN(c6ccc([C@H]7CCC(=O)NC7=O)cn6)CC5)s4)cn3)ccc2c1 (single isomer, unassigned) [Example 112]",33,92
"N#Cc1cnn2c(-c3cc(NC4CCOCC4)c(-c4nnc(N5CCN(CC6CCN(c7ccc([C@H]8CCC(=O)NC8=O)nc7)CC6)CC5)s4)cn3)ccc2c1 (single isomer, unassigned) [Example 116]",100,111
"N#Cc1cnn2c(-c3cc(NC4CCOCC4)c(-c4nnc(N5CCN(CC6CCN(c7ccc([C@@H]8CCC(=O)NC8=O)nc7)CC6)CC5)s4)cn3)ccc2c1 (single isomer, unassigned) [Example 117]",75,106
"CC(C)Nc1cc(-c2ccc3cc(C#N)cnn23)ncc1-c1nnc(N2CCN(CC3CCN(c4ccc([C@@H]5CCC(=O)NC5=O)cn4)CC3)CC2)s1 (single isomer, unassigned) [Example 118]",49,110
"N#Cc1cnn2c(-c3cc(NC4CC4)c(-c4nnc(N5CCN(CC6CCN(c7ccc([C@@H]8CCC(=O)NC8=O)cn7)CC6)CC5)s4)cn3)ccc2c1 (single isomer, unassigned) [Example 119]",30,111
"N#Cc1cnn2c(-c3cc(NC4CC4)c(-c4nnc(N5CCN(CC6CCN(c7ccc([C@@H]8CCC(=O)NC8=O)cc7)CC6)CC5)s4)cn3)ccc2c1 (single isomer, unassigned) [Example 120]",68,109
"CC(C)Nc1cc(-c2ccc3cc(C#N)cnn23)ncc1-c1nnc(N2CC3CCC(C2)N3CC2CCN(c3ccc([C@@H]4CCC(=O)NC4=O)cc3)CC2)s1 (single isomer, unassigned) [Example 121]",73,88
"CC(C)Nc1cc(-c2ccc3cc(C#N)cnn23)ncc1-c1nnc(N2CC3CCC(C2)N3CC2CCN(c3ccc([C@@H]4CCC(=O)NC4=O)cn3)CC2)s1 (single isomer, unassigned) [Example 122]",58,105
"N#Cc1cnn2c(-c3cc(NC4CC4)c(-c4nnc(N5CC6CCC(C5)N6CC5CCN(c6ccc([C@@H]7CCC(=O)NC7=O)cc6)CC5)s4)cn3)ccc2c1 (single isomer, unassigned) [Example 123]",80,96
"N#Cc1cnn2c(-c3cc(N[C@@H]4CCOC4)c(-c4nnc(N5CC6CCC(C5)N6CC5CCN(c6ccc([C@@H]7CCC(=O)NC7=O)cn6)CC5)s4)cn3)ccc2c1 (single isomer, unassigned) [Example 124]",8,110
"N#Cc1cnn2c(-c3cc(NC4CC4)c(-c4nnc(N5CC6CCC(C5)N6CC5CCN(c6ccc([C@@H]7CCC(=O)NC7=O)cn6)CC5)s4)cn3)ccc2c1 (single isomer, unassigned) [Example 125]",30,106
"CCNc1cc(-c2ccc3cc(C#N)cnn23)ncc1-c1nnc(N2CC3CCC(C2)N3CC2CCN(c3ccc([C@@H]4CCC(=O)NC4=O)cc3)CC2)s1 (single isomer, unassigned) [Example 126]",43,108
"N#Cc1cnn2c(-c3cc(N[C@@H]4CCOC4)c(-c4nnc(N5CCN(CC6CCN(c7ccc([C@@H]8CCC(=O)NC8=O)cn7)CC6)CC5)s4)cn3)ccc2c1 (single isomer, unassigned) [Example 127]",9,113
"N#CCNc1cc(-c2ccc3cc(C#N)cnn23)ncc1-c1nnc(N2CC3CCC(C2)N3CC2CCN(c3ccc([C@@H]4CCC(=O)NC4=O)cc3)CC2)s1 (single isomer, unassigned) [Example 128]",6,111
"C[C@H](C#N)Nc1cc(-c2ccc3cc(C#N)cnn23)ncc1-c1nnc(N2CCN(CC3CCN(c4ccc([C@@H]5CCC(=O)NC5=O)cn4)CC3)CC2)s1 (single isomer, unassigned) [Example 129]",5,113
